Values of other authors, collected in patent publication US8778914B2, “Bisphosphonate-prodrugs” (priority 2009, dated 2014).
Numbered stars: 1 amine (or outer) side, 2 acyl side, 3 side chain; on linkers, the order of the positions; unused ones are H or OH. Square brackets hold non-standard residues; d marks the D form. Side chains are listed from the residue outwards. Peptide text beside a SMILES is read from it. * marks the point of attachment. DAMPA = CN(Cc1cnc2nc(N)nc(N)c2n1)c1ccc(C(=O)*)cc1; Hexanoyl(6-maleimido) = O=C1C=CC(=O)N1CCCCCC(=O)*; γGlu = O=C(O)[C@H](CCC(=O)[*:2])N[*:1]

Columns and labels:
[1] = pH 5.0; F. Kratz et al., J. Med. Chem. 2002
plasmin = plasmin (Homo sapiens, UniProt P00747); conditions: releases (gamma-MTX); reported in A. Warnecke et al., Arch. Pharm. 2007
Sequence of plasmin (P00747 581-810 limits assumed, species assumed): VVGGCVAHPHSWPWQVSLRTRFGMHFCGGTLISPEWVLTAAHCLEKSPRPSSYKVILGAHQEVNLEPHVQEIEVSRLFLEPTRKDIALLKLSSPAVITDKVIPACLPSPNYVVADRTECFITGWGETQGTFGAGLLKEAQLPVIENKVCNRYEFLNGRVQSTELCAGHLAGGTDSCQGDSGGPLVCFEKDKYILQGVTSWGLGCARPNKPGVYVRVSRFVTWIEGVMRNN
Sequence of plasmin (P00747 97-580 partner limits assumed, species assumed): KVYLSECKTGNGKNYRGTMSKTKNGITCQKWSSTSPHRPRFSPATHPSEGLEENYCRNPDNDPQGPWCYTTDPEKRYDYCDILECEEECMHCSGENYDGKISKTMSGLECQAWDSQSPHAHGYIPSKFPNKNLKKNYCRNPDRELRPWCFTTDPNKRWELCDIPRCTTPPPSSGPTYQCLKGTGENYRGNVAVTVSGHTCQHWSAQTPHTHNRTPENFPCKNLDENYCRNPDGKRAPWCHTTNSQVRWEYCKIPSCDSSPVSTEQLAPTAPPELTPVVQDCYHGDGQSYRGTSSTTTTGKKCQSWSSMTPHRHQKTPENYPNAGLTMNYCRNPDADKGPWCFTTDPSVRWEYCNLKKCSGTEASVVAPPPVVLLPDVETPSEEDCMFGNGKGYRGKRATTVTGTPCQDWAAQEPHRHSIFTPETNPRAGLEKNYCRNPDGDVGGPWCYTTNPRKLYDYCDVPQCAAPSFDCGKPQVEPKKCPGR

Cathepsin B = Cathepsin B (Homo sapiens, UniProt P07858); conditions: releases (gamma-MTX); reported in A. Warnecke et al., Arch. Pharm. 2007

Structure (SMILES)	acid-sensitive cleavage, release of doxorubicin [1]	cleavage by plasmin (plasmin)	cleavage by Cathepsin B (Cathepsin B)
COc1cccc2c1C(=O)c1c(O)c3c(c(O)c1C2=O)C[C@@](O)(/C(CO)=N/NC(=O)CCCCCN1C(=O)C=CC1=O)C[C@@H]3O[C@H]1C[C@H](N)[C@H](O)[C@H](C)O1 [DOXO-EMCH, 6-maleimidocaproylhydazone derivative of doxorubicin]	cleavable		
C[C@@H](NC(=O)CCCCCN1C(=O)C=CC1=O)C(=O)N[C@@H](Cc1ccccc1)C(=O)N[C@@H](CCCCN)C(=O)N[C@@H](CCCCNC(=O)CC[C@H](NC(=O)c1ccc(N(C)Cc2cnc3nc(N)nc(N)c3n2)cc1)C(=O)O)C(=O)O [EMC-D-Ala-Phe-Lys-Lys-(gamma-MTX)-OH] ({Hexanoyl(6-maleimido)}-[dA]FKK([γGlu-DAMPA])-OH)		cleaved between Lys-Lys	cleaved between Lys-Lys
